From US10611740B2, “Aryl dihydro-2H-benzo[b][1,4]oxazine sulfonamide and related compounds for use as agonists of RORγ and the treatment of disease” (Lycera Corporation, priority 2015, dated 2020)

Experiments:
RORγ-LBD = molecular target: T1, RORγ-LBD (Homo sapiens, UniProt P51449); assay: RORγ-Ligand Binding Domain (LBD) TR-FRET Assay; type: biochemical;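 for TR-FRET Assay Max Response: 665/615 nm ratio relative to signal without ursolic acid or compound set at 100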
T1 construct: made in house; host or cells: SF9 cells (baculovirus)
T1 sequence (P51449 269-508 limits assumed): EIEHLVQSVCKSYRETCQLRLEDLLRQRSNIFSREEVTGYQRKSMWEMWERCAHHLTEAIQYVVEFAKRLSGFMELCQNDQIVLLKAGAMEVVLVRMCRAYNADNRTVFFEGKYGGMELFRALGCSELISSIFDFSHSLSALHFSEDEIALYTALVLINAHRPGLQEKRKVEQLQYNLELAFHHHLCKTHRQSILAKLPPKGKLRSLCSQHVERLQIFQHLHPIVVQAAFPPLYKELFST
Outline: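 SF9 lysate containing His-RORγ-LBD, ~3 nM final; coactivator peptide biotin-SRC1 LXXLL, 200 nM final; ursolic acid 2 μM final; DMSO 1% final; Tris pH 7.0 buffer with KCl, EDTA, DTT, BSA. TR-FRET format.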

Gal4-RORγ-LBD = molecular target: T2, Gal4-RORγ-LBD (Homo sapiens, UniProt P51449); assay: Gal4-RORγ Luciferase Reporter Assay in HEK-293T Cells; type: cell-based; conditions: HEK-293 cells, 2 μM ursolic acid
T2 construct: expressed in transfected cells; host or cells: HEK-293 cells (pcDNA3.1neo plasmid)
T2 sequence (P51449 269-508 limits assumed): T1 sequence (P51449 269-508 limits assumed)
Outline: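 In transfected HEK-293 cells (Gal4-RORγ-LBD, Gal4-luciferase), test agents with 2 μM ursolic acid were incubated overnight at 37 °C before luminescent detection. Values are relative to the ursolic-acid-free, compound-free signal (100).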

| EC50 (RORγ-LBD) [nM] | EC50 (Gal4-RORγ-LBD) [nM] | Compound | TR-FRET Assay Max Response (RORγ-LBD) | Gal4-RORγ Assay Max Response (Gal4-RORγ-LBD) |
| --- | --- | --- | --- | --- |
| < 500 | < 500 | O=C(O)C1(C[C@H]2CN(S(=O)(=O)c3cccc(C4CC4)c3)c3cc(-c4cc(F)cc(OC(F)F)c4)ccc3O2)COC1 [Compound 51F, (S)-3-((4-((3-cyclopropyl-phenyl)sulfonyl)-6-(3-(difluoro-methoxy)-5-fluorophenyl)-3,4-dihydro-2H-benzo[b][1,4]oxazin-2-yl)methyl)oxetane-3-carboxylic acid] | *** (The symbol “***” indicates a value in the range of greater than 150 to 200) | ** (The symbol “**” indicates a value in the range of greater than 90 to 150) |
| < 500 | < 500 | CC(=O)NC1(C[C@H]2CN(S(=O)(=O)c3cccc(C(F)(F)F)c3)c3cc(-c4cccc(C(F)(F)F)n4)ccc3O2)COC1 [Compound 51M, (S)-N-(3-((4-((3-(trifluoromethyl)-phenyl)sulfonyl)-6-(6-(trifluoromethyl)pyridin-2-yl)-3,4-dihydro-2H-benzo[b][1,4]oxazin-2-yl)methyl)oxetan-3-yl)acetamide] | *** (The symbol “***” indicates a value in the range of greater than 150 to 200) | ** (The symbol “**” indicates a value in the range of greater than 90 to 150) |
| < 500 | 500 to 5000 | CC(C)(C[C@@H]1CN(S(=O)(=O)c2cccc(C(F)(F)F)c2)c2cc(-c3cc(F)ccc3F)ccc2O1)C(=O)O [Compound 52, (R)-3-(6-(2,5-difluorophenyl)-4-((3-(trifluoromethyl)phenyl)sulfonyl)-3,4-dihydro-2H-benzo[b][1,4]oxazin-2-yl)-2,2-dimethylpropanoic Acid] | ** (The symbol “**” indicates a value in the range of greater than 90 to 150) | * (The symbol “*” indicates a value in the range of 25 to 90) |
| < 500 | < 500 | O=C(O)[C@@H]1C[C@H]1[C@H]1CN(S(=O)(=O)c2cccc(C(F)(F)F)c2)c2cc(-c3cc(F)ccc3F)ccc2O1 [Compound 53, (1R,2R)-2-((S)-6-(2,5-difluorophenyl)-4-((3-(trifluoromethyl)phenyl)sulfonyl)-3,4-dihydro-2H-benzo[b][1,4]oxazin-2-yl)cyclopropane-1-carboxylic acid] | ** (The symbol “**” indicates a value in the range of greater than 90 to 150) | ** (The symbol “**” indicates a value in the range of greater than 90 to 150) |
| < 500 | 500 to 5000 | O=C(O)[C@H]1C[C@@H]1[C@H]1CN(S(=O)(=O)c2cccc(C(F)(F)F)c2)c2cc(-c3cc(F)ccc3F)ccc2O1 [Compound 54, (1S,2S)-2-((S)-6-(2,5-difluorophenyl)-4-((3-(trifluoromethyl)phenyl)sulfonyl)-3,4-dihydro-2H-benzo[b][1,4]oxazin-2-yl)cyclopropane-1-carboxylic acid] | ** (The symbol “**” indicates a value in the range of greater than 90 to 150) | ** (The symbol “**” indicates a value in the range of greater than 90 to 150) |
| < 500 | < 500 | O=C(O)[C@@H]1C[C@H]1[C@H]1CN(S(=O)(=O)c2cccc(C(F)(F)F)c2)c2cc(-c3cc(F)cc(OC(F)F)c3)ccc2O1 [Compound 55, (1R,2R)-2-((S)-6-(3-(difluoromethoxy)-5-fluorophenyl)-4-((3-(trifluoromethyl)phenyl)sulfonyl)-3,4-dihydro-2H-benzo[b][1,4]oxazin-2-yl)cyclopropane-1-carboxylic acid] | ** (The symbol “**” indicates a value in the range of greater than 90 to 150) | * (The symbol “*” indicates a value in the range of 25 to 90) |
| < 500 | 500 to 5000 | O=C(O)[C@H]1C[C@@H]1[C@H]1CN(S(=O)(=O)c2cccc(C(F)(F)F)c2)c2cc(-c3cc(F)cc(OC(F)F)c3)ccc2O1 [Compound 56, (1S,2S)-2-((S)-6-(3-(difluoromethoxy)-5-fluorophenyl)-4-((3-(trifluoromethyl)phenyl)sulfonyl)-3,4-dihydro-2H-benzo[b][1,4]oxazin-2-yl)cyclopropane-1-carboxylic acid] | ** (The symbol “**” indicates a value in the range of greater than 90 to 150) | ** (The symbol “**” indicates a value in the range of greater than 90 to 150) |
| < 500 | < 500 | O=C(O)C1(C[C@H]2CN(S(=O)(=O)c3cccc(C(F)(F)F)c3)c3cc(-c4cc(F)cc(OC(F)F)c4)ccc3O2)CCOCC1 [Compound 58, (S)-4-((6-(3-(difluoromethoxy)-5-fluorophenyl)-4-((3-(trifluoromethyl)phenyl)sulfonyl)-3,4-dihydro-2H-benzo[b][1,4]oxazin-2-yl)methyl)tetrahydro-2H-pyran-4-carboxylic acid] | *** (The symbol “***” indicates a value in the range of greater than 150 to 200) | ** (The symbol “**” indicates a value in the range of greater than 90 to 150) |
| < 500 | < 500 | O=C(O)[C@H]1C[C@H](C[C@H]2CN(S(=O)(=O)c3cccc(C(F)(F)F)c3)c3cc(-c4cc(F)cc(OC(F)F)c4)ccc3O2)C1 [Compound 59, (1S,3r)-3-(((S)-6-(3-(difluoromethoxy)-5-fluorophenyl)-4-((3-(trifluoromethyl)phenyl)sulfonyl)-3,4-dihydro-2H-benzo[b][1,4]oxazin-2-yl)methyl)cyclobutane-1-carboxylic acid] | *** (The symbol “***” indicates a value in the range of greater than 150 to 200) | ** (The symbol “**” indicates a value in the range of greater than 90 to 150) |
| < 500 | < 500 | O=C(O)[C@H]1C[C@H](C[C@H]2CN(S(=O)(=O)c3cccc(C(F)(F)F)c3)c3cc(-c4cc(F)ccc4F)ccc3O2)C1 [Compound 60A, (1S,3r)-3-(((S)-6-(2,5-difluoro-phenyl)-4-((3-(trifluoromethyl)-phenyl)sulfonyl)-3,4-dihydro-2H-benzo[b][1,4]oxazin-2-yl)methyl)cyclobutane-1-carboxylic acid] | *** (The symbol “***” indicates a value in the range of greater than 150 to 200) | ** (The symbol “**” indicates a value in the range of greater than 90 to 150) |
| < 500 | < 500 | O=C(O)[C@H]1C[C@H](C[C@H]2CN(S(=O)(=O)c3cccc(C(F)(F)F)c3)c3cc(-c4cc(F)cc(F)c4Cl)ccc3O2)C1 [Compound 60B, (1S,3r)-3-(((S)-6-(2-chloro-3,5-difluorophenyl)-4-((3-(trifluoro-methyl)phenyl)sulfonyl)-3,4-dihydro-2H-benzo[b][1,4]oxazin-2-yl)methyl)cyclobutane-1-carboxylic acid] | *** (The symbol “***” indicates a value in the range of greater than 150 to 200) | ** (The symbol “**” indicates a value in the range of greater than 90 to 150) |
